The text below walks through data of patent US6620828B2, “Thiazole compounds and pharmaceutical compositions for inhibiting protein kinases and methods for their use” (Agouron Pharmaceuticals, Inc., priority 1999, dated 2003).

SMILES strings stand for the structures.

Test [1] deals with T1, FL-CHK1 (Homo sapiens, UniProt O14757).
T1 construct: C-terminally His-tagged full-length human CHK1 (FL-CHK1); 6xHis (C); made in house; host or cells: baculovirus/insect cells
T1 sequence (O14757 1-476): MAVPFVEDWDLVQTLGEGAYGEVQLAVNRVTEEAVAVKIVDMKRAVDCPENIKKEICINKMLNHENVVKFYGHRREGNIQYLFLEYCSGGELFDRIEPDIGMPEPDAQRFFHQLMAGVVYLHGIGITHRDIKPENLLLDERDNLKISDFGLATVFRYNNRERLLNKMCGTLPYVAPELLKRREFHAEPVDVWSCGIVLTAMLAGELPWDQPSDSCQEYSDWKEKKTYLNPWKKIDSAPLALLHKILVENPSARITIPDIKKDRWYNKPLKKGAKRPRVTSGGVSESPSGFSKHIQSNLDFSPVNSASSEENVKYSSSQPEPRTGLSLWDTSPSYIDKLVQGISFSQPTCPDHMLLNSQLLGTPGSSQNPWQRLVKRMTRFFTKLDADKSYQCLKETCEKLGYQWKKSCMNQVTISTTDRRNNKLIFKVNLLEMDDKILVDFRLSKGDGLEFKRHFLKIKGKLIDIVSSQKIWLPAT
As to the kind of experiment: CHK1 assay. It is filed as biochemical. On the set-up: CHK1^b: unit not given here. The note with it: Table A combinatorial examples; footnote b not given. From the text:
CHK-1 Construct for Assay: C-terminally His-tagged full-length human CHK1 (FL-CHK1) was expressed using the baculovirus/insect cell system. It contains 6 histidine residues (6×His-tag) at the C-terminus of the 476 amino acid human CHK1. The protein was purified by conventional chromatographic techniques.
The production of ADP from ATP that accompanies phosphoryl transfer to the synthetic substrate peptide Syntide-2 ([…]) was coupled to oxidation of NADH using phosphoenolpyruvate (PEP) through the actions of pyruvate kinase (PK) and lactic dehydrogenase (LDH). The oxidation of NADH was monitored by following the decrease of absorbance at 340 nm (ε340=6.22 cm^−1 mM^−1) using a HP8452 spectrophotometer. Typical reaction solutions contained: […]; 0.15 mM NADH; 28 units of LDH/ml; 16 units of PK/ml; 3 mM DTT; 0.125 mM Syntide-2; 0.15 mM ATP; 25 mM MgCl2 in 50 mM TRIS, pH 7.5; and 400 mM NaCl. Assays were initiated with 10 nM of FL-CHK1. Ki values were determined by measuring initial enzyme activity in the presence of varying concentrations of test compounds. The data were analyzed using Enzyme Kinetic and Kaleidagraph software.

Test [2] has as its target CDK2/Cyclin A complex (Homo sapiens, UniProt P24941). Nature of the test: CDK2/Cyclin A assay. On the set-up: CDK2^c: concentration or dose not given beside the values. As to conditions: Table A combinatorial examples; footnote c not given. Format: biochemical. The text has this: CDK2/Cyclin A Construct for Assay: CDK2 was purified using published methodology (Rosenblatt et al., J. Mol. Biol., 230, 1317-1319 (1993)) from insect cells that had been infected with a baculovirus expression vector. Cyclin A was purified from E. coli cells expressing full-length recombinant cyclin A, and a truncated cyclin A construct was generated by limited proteolysis and purified as described previously (Jeffrey et al., Nature, 376, 313-320 (Jul. 27, 1995)).
CDK2/Cyclin A and CDK4/Cyclin D Assays
Cyclin-dependent kinase activity was measured by quantifying the enzyme-catalyzed, time-dependent incorporation of radioactive phosphate from [^32P]ATP into a recombinant fragment of the retinoblastoma protein. Unless noted otherwise, assays were performed in 96-well plates in a total volume of 50 μL, in the presence of 10 mM HEPES (N-[2-hydroxyethyl]piperazine-N′-[2-ethanesulfonic acid]) (pH 7.4), 10 mM MgCl2, 25 μM adenosine triphosphate (ATP), 1 mg/mL ovalbumin, 5 μg/mL leupeptin, 1 mM dithiothreitol, 10 mM β-glycerophosphate, 0.1 mM sodium vanadate, 1 mM sodium fluoride, 2.5 mM ethylene glycol-bis(β-aminoethyl ether)-N,N,N′N′-tetraacetic acid (EGTA), 2% (v/v) dimethylsulfoxide, and 0.03-0.2 μCi [^32P]ATP. The substrate (0.3-0.5 μg) was purified recombinant retinoblastoma protein fragment (Rb) (residues 386-928 of the native retinoblastoma protein; 62.3 kDa, containing the majority of the phosphorylation sites found in the native 106-kDa protein, as well as a tag of six histidine residues for ease of purification). Reactions were initiated with CDK2 (150 nM CDK2/Cyclin A complex) or CDK4 (50 nM CDK4/Cyclin D3 complex), incubated at 30° C., and terminated after 20 minutes by the addition of ethylenediaminetetraacetic acid EDTA) to 250 mM. The phosphorylated substrate was then captured on a nitrocellulose membrane using a 96-well filtration manifold, and unincorporated radioactivity was removed by repeated washing with 0.85% phosphoric acid. Radioactivity was quantified by exposing the dried nitrocellulose membranes to a phosphorimager. Apparent Ki values were measured by assaying enzyme activity in the presence of different compound concentrations and subtracting the background radioactivity measured in the absence of enzyme. The kinetic parameters (kcat, Km for ATP) were measured for each enzyme under the usual assay conditions by determining the dependence of initial rates on ATP concentration. The data were fit to an equation for competitive inhibition using Kaleidagraph (Synergy Software), or were fit to an equation for competitive tight-binding inhibition using the software KineTic (BioKin, Ltd.). Measured Ki values for known inhibitors against CDK4 and CDK2 agreed with published IC50 values. The specific activity of CDK4 was the same whether complexed to full-length cyclin D3 or the truncated Cyclin D3 construct; both complexes also yielded very similar Ki values for selected inhibitors.

As to `COc1cc(Nc2nc(N)c(-c3nc(-c4ccc(OC(=O)c5ccccc5)cc4)cs3)s2)cc(OC)c1OC`, the “CHK1^b” value in test [1] was found to be 22.3. Further, the “CDK2^c” value in test [2] was found to be 14.6.
Taken in the same sequence, the figures for `COc1ccc(-c2csc(-c3sc(Nc4cc(OC)c(OC)c(OC)c4)nc3N)n2)c(OC)c1` were 9.9 and 4.9.
In the same order, the values of `COc1cc(Nc2nc(N)c(-c3nc(-c4ccc5oc6ccccc6c5c4)cs3)s2)cc2c1OCCO2` are 34.1 and 19.
Taken in the same sequence, the figures for `CCCCCc1ccc(-c2csc(-c3sc(Nc4cc(OC)c(OC)c(OC)c4)nc3N)n2)cc1` were 8.9 and 11.3.
Consider `COc1cc(Nc2nc(N)c(-c3nc(-c4ccc(CC(=O)O)s4)cs3)s2)cc(OC)c1OC`, for which the “CHK1^b” value in test [1] was 41.9. Besides, the “CDK2^c” value in test [2] is 26.7.
In the case of `COc1cc(Nc2nc(N)c(-c3nc(-c4ccc(O)c(O)c4)cs3)s2)cc(OC)c1OC` [drawing 325], the “CHK1^b” value in test [1] came to 47.7. Also, in test [2], the “CDK2^c” value is given as −10.3.
In the same order, the values of `COc1cc(Nc2nc(N)c(-c3nc(-c4csc5ccccc45)cs3)s2)cc(OC)c1OC` are 13.2 and 9.1.
Taken in the same sequence, the figures for `COc1cc(Nc2nc(N)c(-c3nc(-c4ccc5c(c4)CCC(=O)N5)cs3)s2)cc2c1OCCO2` were 31.9 and −7.8.
Regarding `COc1ccccc1-c1csc(-c2sc(Nc3cc(OC)c(OC)c(OC)c3)nc2N)n1`, the “CHK1^b” value in test [1] is given as 20. Further, in test [2], the “CDK2^c” value is −3.5.
On to `COc1cc(Nc2nc(N)c(-c3nc(-c4ccc(-c5ccccc5)cc4)cs3)s2)cc(OC)c1OC`, for which, in test [1], the “CHK1^b” value was 18.7. Moreover, in test [2], the “CDK2^c” value stood at 20.4.
In the same order, the values of `COc1cc(Nc2nc(N)c(-c3nc(-c4cccc(Br)c4)cs3)s2)cc(OC)c1OC` are 13.5 and 15.6.
In the same order, the values of `COc1cc(Nc2nc(N)c(-c3nc(-c4cc(C)c(O)c(C)c4)cs3)s2)cc(OC)c1OC` are 27.9 and 28.4.
In the same order, the values of `COc1cc(Nc2nc(N)c(-c3nc(-c4cc(C(C)(C)C)c(O)c(C(C)(C)C)c4)cs3)s2)cc(OC)c1OC` are 25.3 and 5.3.
`COc1cc(Nc2nc(N)c(-c3nc(-c4ccc(Cl)c(Cl)c4)cs3)s2)cc(OC)c1OC`: the “CHK1^b” value in test [1] is 12.1. The “CDK2^c” value in test [2] came out at 7.3.
Taken in the same sequence, the figures for `COc1cc(Nc2nc(N)c(-c3nc(-c4ccc5c(c4)C(C)(C)CCC5(C)C)cs3)s2)cc2c1OCCO2` were 22.4 and 4.2.
In the same order, the values of `COc1ccc(OC)c(-c2csc(-c3sc(Nc4cc(OC)c(OC)c(OC)c4)nc3N)n2)c1` are 6.1 and 12.2.
Taken in the same sequence, the figures for `COc1ccc(-c2csc(-c3sc(Nc4cc(OC)c(OC)c(OC)c4)nc3N)n2)cc1` [drawing 362] were 29.4 and 1.7.
`COc1cc(Nc2nc(N)c(-c3nc(-c4ccccc4OC(=O)c4ccccc4)cs3)s2)cc(OC)c1OC`: the “CHK1^b” value in test [1] is 0.5. For the same molecule, in test [2], the “CDK2^c” value was 4.6.
Consider `COc1cc(Nc2nc(N)c(-c3nc(-c4cc(C)sc4C)cs3)s2)cc(OC)c1OC`, for which, in test [1], the “CHK1^b” value turned out to be 46.3. Also, in test [2], the “CDK2^c” value worked out at 7.3.
Taken in the same sequence, the figures for `COc1cc(Nc2nc(N)c(-c3nc(-c4ccc(F)cc4)cs3)s2)cc(OC)c1OC` were 48.3 and 35.
Taken in the same sequence, the figures for `CCOC(=O)c1cc(-c2csc(-c3sc(Nc4cc(OC)c(OC)c(OC)c4)nc3N)n2)on1` were 2.7 and 23.2.
Taken in the same sequence, the figures for `COc1cc(Nc2nc(N)c(-c3nc(-c4ccc(C#N)cc4)cs3)s2)cc(OC)c1OC` were 10.3 and 15.6.
As for `COc1cc(Nc2nc(N)c(-c3nc(-c4ccccc4[N+](=O)O)cs3)s2)cc(OC)c1OC`, the “CHK1^b” value in test [1] was determined as 36.6. In test [2], the “CDK2^c” value turned out to be 1.9.
Taken in the same sequence, the figures for `COc1cc(Nc2nc(N)c(-c3nc(-c4ccc5ccccc5c4)cs3)s2)cc2c1OCCO2` were 9.2 and 11.6.
Consider `CCc1cc2c(cc1-c1csc(-c3sc(Nc4cc(OC)c5c(c4)OCCO5)nc3N)n1)C(C)(C)CCC2(C)C`, for which the “CHK1^b” value in test [1] is reported as 10.4. Moreover, in test [2], the “CDK2^c” value amounted to 13.8.
In the same order, the values of `COc1cc(Nc2nc(N)c(-c3nc(-c4ccc5c(c4)OCCO5)cs3)s2)cc2c1OCCO2` are 32.9 and 5.4.
In the same order, the values of `COc1cc(Nc2nc(N)c(-c3nc(-c4ccc([N+](=O)[O-])cc4)cs3)s2)cc(OC)c1OC` are 15.2 and −14.4.
In the same order, the values of `CCOC(=O)c1ccccc1-c1csc(-c2sc(Nc3cc(OC)c(OC)c(OC)c3)nc2N)n1` are 41.4 and 4.4.
Take `COc1cc(Nc2nc(N)c(-c3nc(-c4cc(Br)c(Cl)s4)cs3)s2)cc(OC)c1OC`: the “CHK1^b” value in test [1] was determined as 32. Further, the “CDK2^c” value in test [2] was −0.2.
Consider `COc1ccc(-c2csc(-c3sc(Nc4cc(OC)c(OC)c(OC)c4)nc3N)n2)cc1` [drawing 336], for which the “CHK1^b” value in test [1] is given as 15.3. Further, the “CDK2^c” value in test [2] is reported as −13.
In the same order, the values of `COc1cc(Nc2nc(N)c(-c3nc(-c4sc5ccc(Cl)cc5c4C)cs3)s2)cc2c1OCCO2` [drawing 363] are 38.1 and 12.
In the same order, the values of `COc1cc(Nc2nc(N)c(-c3nc(-c4sc5ccccc5c4C)cs3)s2)cc2c1OCCO2` are 4.7 and 23.1.
Turning to `COc1cc(Nc2nc(N)c(-c3nc(-c4ccc(Cl)c(C)c4)cs3)s2)cc(OC)c1OC`, the “CHK1^b” value in test [1] was 11.7. For the same molecule, the “CDK2^c” value in test [2] is reported as −4.4.
Taken in the same sequence, the figures for `CCN(CC)c1ccc(-c2csc(-c3sc(Nc4cc(OC)c(OC)c(OC)c4)nc3N)n2)cc1` were 1.3 and 6.3.
In the same order, the values of `COc1cccc(-c2csc(-c3sc(Nc4cc(OC)c(OC)c(OC)c4)nc3N)n2)c1` are 21.2 and −0.4.
Taken in the same sequence, the figures for `COc1cc(Nc2nc(N)c(-c3nc(-c4c(Cl)cc(C(F)(F)F)cc4Cl)cs3)s2)cc(OC)c1OC` were 26.2 and −6.
In the case of `COc1cc(Nc2nc(N)c(-c3nc(-c4sc5ccc(Cl)cc5c4C)cs3)s2)cc2c1OCCO2` [drawing 361], in test [1], the “CHK1^b” value was 48.7. Moreover, the “CDK2^c” value in test [2] came to 7.3.
